Laboratory results taken from PMC6277434, “Discovery of a potent HMG-CoA reductase degrader that eliminates statin-induced reductase accumulation and lowers cholesterol” (Nature Communications, 2018).

Tests used:
HMGCR = target: T1, HMGCR (Cricetulus griseus, UniProt P00347); test: HMGCR ubiquitination assay in CHO-7 cells; type: cell-based, Chinese hamster
T1 construct: endogenous in cells; host or cells: CHO-7, CHG, SRD-13A, SRD-15
T1 sequence (P00347 1-887): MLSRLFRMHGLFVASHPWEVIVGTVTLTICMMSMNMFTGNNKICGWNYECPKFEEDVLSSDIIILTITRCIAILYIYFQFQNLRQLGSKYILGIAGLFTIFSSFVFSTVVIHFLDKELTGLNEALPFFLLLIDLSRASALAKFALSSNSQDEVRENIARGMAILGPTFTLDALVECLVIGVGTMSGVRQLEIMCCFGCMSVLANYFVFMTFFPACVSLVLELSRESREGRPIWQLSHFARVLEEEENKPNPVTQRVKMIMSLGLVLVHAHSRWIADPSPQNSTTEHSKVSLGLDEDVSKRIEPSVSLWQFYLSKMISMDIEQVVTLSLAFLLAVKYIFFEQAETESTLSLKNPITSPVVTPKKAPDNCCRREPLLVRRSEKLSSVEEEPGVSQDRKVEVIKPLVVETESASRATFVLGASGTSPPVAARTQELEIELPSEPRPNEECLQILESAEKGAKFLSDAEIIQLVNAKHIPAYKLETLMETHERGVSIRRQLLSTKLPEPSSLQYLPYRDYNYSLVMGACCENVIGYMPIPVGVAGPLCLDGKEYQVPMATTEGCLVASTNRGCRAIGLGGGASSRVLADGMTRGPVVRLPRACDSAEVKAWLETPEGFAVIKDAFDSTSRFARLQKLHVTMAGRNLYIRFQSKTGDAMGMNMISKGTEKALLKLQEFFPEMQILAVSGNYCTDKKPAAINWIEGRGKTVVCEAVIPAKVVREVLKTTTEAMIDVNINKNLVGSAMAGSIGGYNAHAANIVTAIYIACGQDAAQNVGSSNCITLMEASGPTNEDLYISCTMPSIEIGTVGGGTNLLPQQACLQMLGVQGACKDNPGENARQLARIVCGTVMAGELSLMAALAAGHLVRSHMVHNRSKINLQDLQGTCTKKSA
Description: To detect endogenous HMGCR ubiquitination, CHO-7 cells were treated as described in figure legends. Two 10-cm dishes of cells were harvested and lysed in 600 μl of immunoprecipitation buffer (1× PBS, 1% Triton X-100, 5 mM EDTA, 5 mM EGTA) supplemented with protease inhibitor cocktail, 0.1 mM Leupeptin, 10 μM MG-132, and 10mM N-ethylmaleimide. Lysates were pre-cleared with 3 μg of normal rabbit IgG (D110502, Sangon) and 40 μl of protein A/G plus-agarose (sc-2003, Santa Cruz Biotechnology) for 1 h at 4 °C, followed by immunoprecipitation with 10 μg of rabbit polyclonal anti-HMGCR and 100 μl of protein A/G plus-agarose overnight at 4 °C. After washing with immunoprecipitation buffer containing protease inhibitor cocktail for three times, immunoprecipitates were eluted with 2× loading buffer (75 mM Tris-HCl, pH 6.8, 50 mM NaCl, 6% SDS, 15% glycerol, and 0.02% bromophenol blue) at 95 °C for 10 min. Supernatants were then mixed with equal volume of membrane protein solubilization buffer and incubated at 37 °C for 30 min. Samples were finally subjected to immunoblotting as described above.
To assay for the ubiquitination of overexpressed HMGCR protein, cells were first transfected with indicated plasmids. A similar protocol was employed except that lysates were immunoprecipitated with 40 μl of anti-Flag M2 affinity gel (A2220, Sigma-Aldrich).

WT HMGCR = target: T2, WT HMGCR (Cricetulus griseus, UniProt P00347); test: Immunoblotting of overexpressed wild type HMGCR in Huh7 cells; type: cell-based; conditions: 1 µM lovastatin
T2 construct: expressed in transfected cells; host or cells: Huh7
T2 sequence (P00347 1-887): T1 sequence (P00347 1-887)
Description: Cells were harvested and homogenized in the RIPA buffer (50 mM Tris-HCl, pH 8.0, 150 mM NaCl, 2 mM MgCl2, 1.5% NP-40, 0.1% SDS, and 0.5% sodium deoxycholate) supplemented with protease cocktail inhibitor, 10 μM MG-132, 10 μg ml^−1 leupeptin and 1 mM phenylmethylsulfonyl fluoride. The protein concentrations of lysates were determined using BCA method (Beyotime). Samples were mixed with the membrane protein solubilization buffer (62.5 mM Tris-HCl, pH 6.8, 15% SDS, 8 M urea, 10% glycerol, and 100 mM DTT) plus the 4× loading buffer (150 mM Tris-HCl, pH 6.8, 12% SDS, 30% glycerol, 6% 2-mercaptoethanol, and 0.02% bromophenol blue) and incubated for 30 min at 37 °C. Proteins were resolved by SDS-PAGE and transferred to nitrocellulose membranes (GE Healthcare). Immnoblots were blocked with 5% non-fat milk in TBS containing 0.075% Tween-20 (TBST) and probed with indicated antibodies overnight at 4 °C. After washing in TBST for five times, blots were incubated with HRP-conjugated secondary antibodies for 2 h at room temperature. Immunoreactivity was developed with Clarity Western ECL chemiluminescent substrates (170–5061, Bio-Rad). Western blot images were captured by Amersham Imager 600 (GE Healthcare), and integrated optical intensities of each band were quantified by Image-Pro Plus 6 software (Media Cybernetics). […]
RT-qPCR. Quantifications of the relative mRNA levels of indicated SREBP target […]

Hmgcr mRNA = test: RT-qPCR of Hmgcr mRNA in CHO-7 cells; type: cell-based, Chinese hamster; conditions: DMSO = 1; for HMGCR mRNA level, mean: 16 h
Description: Cells were treated as described in corresponding figure legends, then total RNA was extracted from cells or mouse livers using TRI Reagent (T9424, Sigma-Aldrich). Equal amounts of RNA from cells or mice receiving the same treatment were pooled were used for cDNA synthesis with oligo dT and reverse transcriptase MLV (Promega). Gene expression was analyzed by quantitative real-time PCR on a Stratagene Mx30005PTM Q-PCR Systems. The primers used were listed in Supplementary Tables 2–4.

Row | SMILES | ubiquitination of endogenous HMGCR (HMGCR; CHO-7, with 10 μM MG-132, 3 h) | ubiquitination of transfected HMGCR (HMGCR; cells co-expressing wild-type HMGCR and Insig-1) | elevation of overexpressed WT HMGCR protein (WT HMGCR) [fold] | HMGCR mRNA level, mean (Hmgcr mRNA; CHO-7, lovastatin 0.001 uM) | HMGCR mRNA level, mean (Hmgcr mRNA; CHO-7, lovastatin 0.003 uM) | HMGCR mRNA level, mean (Hmgcr mRNA; CHO-7, lovastatin 0.01 uM) | HMGCR mRNA level, mean (Hmgcr mRNA; CHO-7, lovastatin 0.03 uM) | HMGCR mRNA level, mean (Hmgcr mRNA; CHO-7, lovastatin 0.1 uM) | HMGCR mRNA level, mean (Hmgcr mRNA; CHO-7, lovastatin 0.3 uM) | HMGCR mRNA level, mean (Hmgcr mRNA; CHO-7, lovastatin 1 uM) | HMGCR mRNA level, mean (Hmgcr mRNA; CHO-7, lovastatin 3 uM) | HMGCR mRNA level, mean (Hmgcr mRNA; CHO-7, lovastatin 10 uM) | increase of Hmgcr mRNA abundance (Hmgcr mRNA; CHO-7 cells, statin 16 h (lovastatin up to 10 μM)) [fold]
1 | C=CCC(O)(CC=C)CCCC(C)C1CCC2C3C(O)C=C4C(C)(C)C(O)CCC4(C)C3CCC12C (stereo not shown) [Cmpd 81] | dose-dependent increase | markedly increase | – | – | – | – | – | – | – | – | – | – | –
2 | CC[C@H](C)C(=O)O[C@H]1C[C@@H](C)C=C2C=C[C@H](C)[C@H](CC[C@@H]3C[C@@H](O)CC(=O)O3)[C@H]21 [Lovastatin, lovastatin] | – | – | 6 | 1.196 | 1.51 | 1.897 | 2.523 | 2.959 | 3.447 | 3.688 | 3.602 | 3.663 | 3.6
